Source: patent US20250326769A1, “HETEROAROMATIC MACROCYCLIC ETHER CHEMOTHERAPEUTIC AGENTS” (Nuvalent, Inc., priority 2022, published 2025)
Like-named read-outs stand apart in the source and are kept apart here.

Key:
[1] = biological target: Ba/F3 EML4-ALK v1 I1171N/D1203N (Homo sapiens (Human), UniProt Q9HC35+Q9UM73, D1203N/I1171N); experiment: Ba/F3 cell proliferation assay, EML4-ALK v1 I1171N/D1203N; assay type: cell-based; conditions: for IC50: Ba/F3 stable cells, 72 hours, CellTiter-Glo; for ETV6-TRKB / EML4-ALK v1 I1171N/D1203N: TRKB selectivity, ratio of Ba/F3 IC50 values
Sequence of Ba/F3 EML4-ALK v1 I1171N/D1203N (Q9UM73 other isoform, or with tags, fused parts or gaps I1171N/D1203N): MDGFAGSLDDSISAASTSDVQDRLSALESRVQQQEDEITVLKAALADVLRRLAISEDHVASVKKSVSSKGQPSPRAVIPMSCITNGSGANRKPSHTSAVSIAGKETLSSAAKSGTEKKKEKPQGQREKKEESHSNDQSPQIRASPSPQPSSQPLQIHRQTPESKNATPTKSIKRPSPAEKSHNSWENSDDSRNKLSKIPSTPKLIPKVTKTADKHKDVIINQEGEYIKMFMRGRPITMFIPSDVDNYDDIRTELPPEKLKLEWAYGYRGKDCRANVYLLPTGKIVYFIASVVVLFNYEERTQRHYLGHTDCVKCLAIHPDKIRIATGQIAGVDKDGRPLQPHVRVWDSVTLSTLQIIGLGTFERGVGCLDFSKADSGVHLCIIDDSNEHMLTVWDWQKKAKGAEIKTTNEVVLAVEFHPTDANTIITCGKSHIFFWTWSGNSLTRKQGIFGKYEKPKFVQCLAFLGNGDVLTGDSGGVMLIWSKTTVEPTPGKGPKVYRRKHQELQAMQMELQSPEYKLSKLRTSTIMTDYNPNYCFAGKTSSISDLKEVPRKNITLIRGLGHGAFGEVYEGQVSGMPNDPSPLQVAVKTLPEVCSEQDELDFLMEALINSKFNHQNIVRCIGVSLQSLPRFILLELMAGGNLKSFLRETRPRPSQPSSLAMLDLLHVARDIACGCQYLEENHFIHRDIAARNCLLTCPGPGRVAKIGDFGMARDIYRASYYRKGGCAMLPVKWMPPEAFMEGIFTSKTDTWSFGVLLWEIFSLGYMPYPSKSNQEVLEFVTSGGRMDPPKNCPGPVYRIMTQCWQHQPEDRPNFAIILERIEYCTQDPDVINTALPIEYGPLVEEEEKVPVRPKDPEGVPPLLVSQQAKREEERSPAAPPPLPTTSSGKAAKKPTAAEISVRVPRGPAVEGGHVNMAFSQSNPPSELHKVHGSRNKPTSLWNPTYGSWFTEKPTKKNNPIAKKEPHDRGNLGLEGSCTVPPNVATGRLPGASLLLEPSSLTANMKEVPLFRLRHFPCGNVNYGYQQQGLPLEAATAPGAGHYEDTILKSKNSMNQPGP
Procedure, shortened: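 Ba/F3 cells made IL-3-independent by retroviral EML4-ALK v1 I1171N/D1203N and selected with puromycin, then treated with 3-fold compound dilutions for 72 h. Viability by CellTiter-Glo luminescence; IC50 from four-parameter logistic fit.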

Ba/F3 ETV6-TRKB = Ba/F3 ETV6-TRKB (Homo sapiens, UniProt Q16620); experiment: Ba/F3 cell proliferation assay, ETV6-TRKB; assay type: cell-based
Sequence of Ba/F3 ETV6-TRKB (Q16620 32-822 limits assumed, change not shown): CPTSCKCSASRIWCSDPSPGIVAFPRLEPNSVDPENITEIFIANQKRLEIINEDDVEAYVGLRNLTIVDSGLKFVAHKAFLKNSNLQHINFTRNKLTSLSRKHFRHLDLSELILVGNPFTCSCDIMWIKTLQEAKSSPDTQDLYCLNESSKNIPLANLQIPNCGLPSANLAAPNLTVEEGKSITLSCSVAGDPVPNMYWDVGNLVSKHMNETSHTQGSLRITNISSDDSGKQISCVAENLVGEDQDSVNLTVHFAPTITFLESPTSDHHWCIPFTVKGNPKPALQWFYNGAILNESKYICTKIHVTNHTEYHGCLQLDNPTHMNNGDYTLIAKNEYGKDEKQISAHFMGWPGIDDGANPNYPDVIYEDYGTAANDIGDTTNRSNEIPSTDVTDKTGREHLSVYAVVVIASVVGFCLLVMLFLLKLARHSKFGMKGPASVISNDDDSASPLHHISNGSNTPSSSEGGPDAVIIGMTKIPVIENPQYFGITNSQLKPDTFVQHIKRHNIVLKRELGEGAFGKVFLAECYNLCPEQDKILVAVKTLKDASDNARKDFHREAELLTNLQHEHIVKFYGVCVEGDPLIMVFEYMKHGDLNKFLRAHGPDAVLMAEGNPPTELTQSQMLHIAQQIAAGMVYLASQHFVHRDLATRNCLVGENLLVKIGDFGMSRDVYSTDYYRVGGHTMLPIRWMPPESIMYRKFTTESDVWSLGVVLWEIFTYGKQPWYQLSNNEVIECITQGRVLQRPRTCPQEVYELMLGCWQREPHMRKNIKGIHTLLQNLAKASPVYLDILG
Procedure, shortened: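 Ba/F3 cells retrovirally transduced with ETV6-TRKB and selected for IL-3-independent growth with puromycin were treated with 3-fold compound dilutions for 72 h. Viability read by CellTiter-Glo luminescence; IC50 from percent inhibition by four-parameter logistic fit.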

ALK I1171N/D1203N = ALK I1171N/D1203N (Homo sapiens (Human), UniProt Q9UM73, D1203N/I1171N); experiment: Biochemical kinase assay, ALK I1171N/D1203N; conditions: apparent inhibitory constant, kinase domain, Morrison equation; read-out: ALK-I1171N-D1203N Ki^app
Sequence of ALK I1171N/D1203N (Q9UM73 1116-1392 I1171N/D1203N): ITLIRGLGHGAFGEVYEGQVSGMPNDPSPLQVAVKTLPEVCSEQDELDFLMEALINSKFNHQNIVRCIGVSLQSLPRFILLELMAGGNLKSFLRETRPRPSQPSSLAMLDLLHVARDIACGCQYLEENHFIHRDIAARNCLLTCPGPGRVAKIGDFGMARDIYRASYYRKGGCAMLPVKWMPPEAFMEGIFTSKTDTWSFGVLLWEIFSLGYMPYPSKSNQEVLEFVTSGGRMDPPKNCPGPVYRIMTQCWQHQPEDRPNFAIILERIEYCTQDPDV
Procedure, shortened: (§1)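 Kinase domains (in enzyme solution: ALK I1171N/D1203N 4 nM, ROS1 0.6 nM, ROS1-G2032R 0.5 nM, TRKB 1.5 nM) were mixed with substrate solution holding 2 mM ATP and 26 μM AQT0101 (ALK, ROS1) or AQT0104 (TRKB). Initial rates from 120-min fluorescence kinetics at 30 °C were fitted to the Morrison equation (Ki^app).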

ROS1 = ROS1 (Homo sapiens (Human), UniProt P08922); experiment: Biochemical kinase assay, ROS1-wt; conditions: apparent inhibitory constant, kinase domain, Morrison equation; read-out: ROS1-wt Ki^app
Sequence of ROS1 (P08922 1945-2222): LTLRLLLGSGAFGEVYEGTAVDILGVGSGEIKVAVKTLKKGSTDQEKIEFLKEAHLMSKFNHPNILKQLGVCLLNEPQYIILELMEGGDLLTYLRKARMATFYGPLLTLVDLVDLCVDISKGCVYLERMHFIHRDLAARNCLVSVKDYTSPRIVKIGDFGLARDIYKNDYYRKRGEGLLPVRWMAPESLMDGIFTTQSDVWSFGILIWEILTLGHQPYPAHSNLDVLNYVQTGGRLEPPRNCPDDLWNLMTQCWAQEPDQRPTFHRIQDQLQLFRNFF
Procedure: (§2) First, 250 nL of compound dissolved in DMSO (100-fold of the desired concentration) was dispensed into a 384-well plate. A 12.5 μL substrate solution containing ATP (2 mM) and fluorogenic phosphorylation substrate AQT0101 ([…] for ALK and ROS, AssayQuant) or AQT0104 (26 μM for TRKB, AssayQuant) in buffer (50 mM HEPES pH 7.5, […], 0.5 mM EGTA, 10 mM MgCl2) was added and mixed thoroughly. Then, a 12.5 μL kinase solution containing ALK (1.5 nM, Carna, 08-518), ALK I1171N/D1203N (4 nM, SignalChem, custom-made), ROS1 (0.6 nM, Carma, 08-163), ROS1-G2032R (0.5 nM, SignalChem, R14-121BG), or TRKB-wt (1.5 nM, SignalChem, N17-11G) kinase domains in buffer ([…] pH 7.5, 0.01% Brij-[…], 0.4 mg/mL BSA, 0.5 mM EGTA, and 10 mM MgCl2) was added and mixed thoroughly. The plate was sealed and read by SpectraMax Paradigm at λ=485 nm every 2 minutes for 120 minutes at 30° C. Initial rates of reaction (v) were calculated from the change in fluorescence intensity over time during the initial, linear portion of the reaction. Finally, apparent inhibitory constants (Ki^app) were determined from regression of v and I (inhibitor concentration) to Morrison Equation (E=enzyme concentration): […]
(§3) Compound potency can be interpreted by binning Ki^app values against the targets: bin A for high potency, Ki^app<50 nM; bin B for medium potency, 50 nM≤Ki^app<500 nM; and bin C for low potency, Ki^app≥500 nM. […] “nd” means not determined.

ROS1-G2032R = ROS1-G2032R (Homo sapiens (Human), UniProt P08922, G2032R); experiment: Biochemical kinase assay, ROS1-G2032R; conditions: apparent inhibitory constant, kinase domain, Morrison equation; read-out: ROS1-G2032R Ki^app
Sequence of ROS1-G2032R (P08922 1945-2222 G2032R): as the sequence (P08922 1945-2222) above, with G88R counted along it
Procedure: as §2, §3

TRKB-wt = TRKB-wt (Homo sapiens (Human), UniProt Q16620); experiment: Biochemical kinase assay, TRKB-wt; conditions: apparent inhibitory constant, kinase domain, Morrison equation; read-out: TRKB-wt Ki^app
Sequence of TRKB-wt (Q16620 538-807): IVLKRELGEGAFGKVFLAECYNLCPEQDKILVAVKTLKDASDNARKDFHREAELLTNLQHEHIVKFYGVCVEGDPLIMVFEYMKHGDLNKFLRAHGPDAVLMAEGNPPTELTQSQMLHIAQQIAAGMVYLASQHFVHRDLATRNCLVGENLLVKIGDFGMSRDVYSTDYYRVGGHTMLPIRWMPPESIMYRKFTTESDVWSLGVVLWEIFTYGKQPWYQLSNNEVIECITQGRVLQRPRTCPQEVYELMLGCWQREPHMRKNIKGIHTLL
Procedure, shortened: as §1

Ba/F3 EML4-ALK v1 I1171N = Ba/F3 EML4-ALK v1 I1171N (Homo sapiens (Human), UniProt Q9HC35+Q9UM73, I1171N); experiment: Ba/F3 cell proliferation assay, EML4-ALK v1 I1171N; assay type: cell-based; conditions: for IC50: Ba/F3 stable cells, 72 hours, CellTiter-Glo; for ETV6-TRKB / EML4-ALK v1 I1171N: TRKB selectivity, ratio of Ba/F3 IC50 values
Sequence of Ba/F3 EML4-ALK v1 I1171N (Q9UM73 other isoform, or with tags, fused parts or gaps I1171N): as the sequence (Q9UM73 other isoform, or with tags, fused parts or gaps I1171N/D1203N) above, with N642D counted along it
Procedure, shortened: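 Ba/F3 cells stably transformed with retroviral EML4-ALK v1 I1171N, selected by IL-3 withdrawal and puromycin, grown IL-3-free. Compounds added as 3-fold dilution series, 72 h incubation; viability by CellTiter-Glo luminescence. IC50 from percent inhibition by four-parameter logistic fit, binned A/B/C.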

Row | IC50 (Ba/F3 ETV6-TRKB; Ba/F3 stable cells, 72 hours, CellTiter-Glo; read-out: ETV6-TRKB IC50) [nM] | SMILES | IC50 [1] [nM] | ETV6-TRKB / EML4-ALK v1 I1171N/D1203N [1] | Ki (ALK I1171N/D1203N) [nM] | Ki (ROS1) [nM] | Ki (ROS1-G2032R) [nM] | Ki (TRKB-wt) [nM] | IC50 (Ba/F3 EML4-ALK v1 I1171N) [nM] | ETV6-TRKB / EML4-ALK v1 I1171N (Ba/F3 EML4-ALK v1 I1171N) | IC50 (Ba/F3 ETV6-TRKB; read-out: ETV6-TRKB IC50; Ba/F3 stable cells, 72 hours, CellTiter-Glo) [nM]
1 | > 500 | C[C@H]1Oc2cc(cnc2N)-c2c(c(C(=O)N(C)C)nn2CC2CC2)Cc2cn(C)nc2-c2ccc(F)cc21 [Example 8, N,N-dimethyl-(R)-22-amino-3-(cyclopropylmethyl)-16-fluoro-10-methyl-19-methyl-20-oxa-3,4,10,11,23-pentaazapentacyclo[19.3.1.0^2,^6.0^8,^12.0^13,^18]pentacosa-1(24),2(6),4,8,11,13,15, 17,21(25),22-decaene-5-carboxamide] | 0.1 to 50 | A (bin A for very high selectivity, ratio≥30-fold) | < 50 | < 50 | < 50 | 50 to 500 | 0.1 to 50 | A (bin A for very high selectivity, ratio≥30-fold) | 
2 |  | C[C@H]1Oc2cc(cnc2N)-c2c(C#N)nn(C(=O)N(C)C)c2Cc2cccnc2-c2ccc(F)cc21 [Example 27, N,N-dimethyl-(R)-23-amino-3-cyano-17-fluoro-20-methyl-21-oxa-4,5,12,24-tetraazapentacyclo[20.3.1.0^2,^6.0^8,^13.0^14,^19]hexacosa-1(25),2(6),3,8(13),9,11,14,16,18,22(26),23-undecaene-5-carboxamide] | 0.1 to 50 | A (bin A for very high selectivity, ratio≥30-fold) | < 50 | < 50 | < 50 | < 50 | 0.1 to 50 | A (bin A for very high selectivity, ratio≥30-fold) | 50 to 500
